From patent US20180344702A1, “METHODS FOR TREATING PATIENTS WITH HEMATOLOGIC MALIGNANCIES” (Aptose Biosciences, Inc., priority 2017, published 2018)

Legend:
FLT3(D835Y) [1] = target: T1, FLT3(D835Y) (Homo sapiens, UniProt P36888, D835Y); assay: Binding constant (Kd), competition binding with qPCR readout
T1 construct: made in house; host or cells: E. coli BL21-derived host (T7 phage) or HEK-293

FLT3(K663Q) = target: T2, FLT3(K663Q) (Homo sapiens, UniProt P36888, K663Q); assay: as above
T2 construct: made in house; host or cells: E. coli BL21-derived host (T7 phage) or HEK-293

FLT3(D835Y) [2] = target: T1, FLT3(D835Y); assay: Inhibition of FLT3 mutants, kinase IC50; assay type: biochemical
Procedure: (§1) RBC HotSpot Kinase Assay Protocol:
(§2) Reagents used: Base Reaction buffer; 20 mM Hepes (pH 7.5), 10 mM MgCl2, 1 mM EGTA, 0.02% Brij35, 0.02 mg/ml BSA, 0.1 mM Na3VO4, 2 mM DTT, 1% DMSO. Required cofactors are added individually to each kinase reaction.
(§3) Compound 7 was dissolved in 100% DMSO to a specified concentration. The serial dilution was conducted by epMotion 5070 in DMSO. The substrate was freshly prepared in Reaction Buffer and any required cofactors to the substrate solution were added. The kinase was added to the solution and gently mixed. Compound 7 was added in 100% DMSO into the kinase reaction mixture by Acoustic technology (Echo550; nanoliter range), and incubated for 20 min at room temperature. ^33P-ATP (Specific activity 10 μCi/μl) was added into the reaction mixture to initiate the reaction, which was incubated for 2 hours, whereupon kinase activity was detected by the filter-binding method.

ITK = ITK (Homo sapiens, UniProt Q08881); assay: Key off-targets (Table 8); assay type: biochemical
Sequence of ITK (Q08881 whole entry): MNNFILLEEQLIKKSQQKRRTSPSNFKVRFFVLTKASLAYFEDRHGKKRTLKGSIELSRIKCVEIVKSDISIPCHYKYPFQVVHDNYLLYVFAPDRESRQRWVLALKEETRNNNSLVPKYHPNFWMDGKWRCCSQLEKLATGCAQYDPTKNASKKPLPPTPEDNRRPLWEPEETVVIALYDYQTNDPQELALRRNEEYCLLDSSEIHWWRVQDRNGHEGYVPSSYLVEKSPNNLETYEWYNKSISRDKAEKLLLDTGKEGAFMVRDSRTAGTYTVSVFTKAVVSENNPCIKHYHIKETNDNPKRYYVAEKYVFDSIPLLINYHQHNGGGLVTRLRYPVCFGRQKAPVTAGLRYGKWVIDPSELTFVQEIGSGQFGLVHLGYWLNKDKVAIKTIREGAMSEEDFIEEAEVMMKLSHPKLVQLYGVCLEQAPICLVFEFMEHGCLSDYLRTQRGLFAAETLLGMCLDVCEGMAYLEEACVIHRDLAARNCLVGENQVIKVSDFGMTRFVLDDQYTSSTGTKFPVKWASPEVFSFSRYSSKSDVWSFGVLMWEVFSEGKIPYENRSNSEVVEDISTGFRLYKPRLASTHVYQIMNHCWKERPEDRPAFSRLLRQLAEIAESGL

[3] = test system: Ba/F3 cells transfected with FLT3 WT; assay: Cytotoxicity in isogenic transfected Ba/F3 cells (Table 4); assay type: cell-based, Murin; settings: Mus musculus, BaF3, read-out: IC50 in Transfected Ba/F3 cells, FLT3 WT
[4] = test system: Ba/F3 cells transfected with FLT3 D835Y; assay: as above; assay type: cell-based, Murin; settings: Mus musculus, BaF3, read-out: IC50 in Transfected Ba/F3 cells, FLT3 D835Y
Ba/F3-FLT3 (FLT3-WT) = assay: Antiproliferative activity (Table 6); assay type: cell-based, Murin; settings: 72 h
Ba/F3-D835Y (FLT3-D835Y) = assay: Antiproliferative activity (Table 6); assay type: cell-based, Murin; settings: 72 h
[5] = test system: Ba/F3-ITD + 842 (ITD + Y842C); assay: Antiproliferative activity (Table 6); assay type: cell-based, Murin; settings: 72 h
[6] = test system: Ba/F3-ITD + D835H (FLT3-ITD + D835H); assay: Antiproliferative activity (Table 6); assay type: cell-based, Murin; settings: 72 h
[7] = test system: MOLM13 (FLT3-ITD, t(9:11)); assay: Antiproliferative activity (Table 6); assay type: cell-based; settings: Homo sapiens, MOLM-13, 72 h
[8] = test system: MOLM14 (FLT3-ITD, t(9:11)); assay: Antiproliferative activity (Table 6); assay type: cell-based; settings: Homo sapiens, MOLM-14, 72 h
[9] = test system: human cells (e.g., FLTs-ITD-mutated leukemia cells MV4-11); assay: Mouse xenograft model, tumor volume; assay type: in vivo, mice; settings: several doses over a 22-day period, vs control or Ibrutinib
Procedure: Animal Study: Balb/c mice were injected (SQ) with human cells (e.g., FLTs-ITD-mutated leukemia cells MV4-11), and treated orally (q.d.) with the indicated doses of Compound 7 for 14 days. The effect (e.g., anti-leukemia) was assessed by measuring tumor burden. Oral toxicity was evaluated, for example, by measuring body weight. Compound 7 concentrations in plasma were measured at the indicated time points after dosing at the first day.

MOLM-13 cells = assay: Cell-cycle analysis (flow cytometry); assay type: cell-based, human; settings: dose-dependent
Procedure: (§4) Cell-cycle analysis: Cells were treated with vehicle, DMSO or Compound 7 and were stained with PI and EdU, and then analyzed by flow cytometry to determine the phases of cell cycle.

KG-1 cells = assay: Cell-cycle dysregulation (flow cytometry); assay type: cell-based; settings: dose-dependent
Procedure: as §4

NOMO-1 cells = assay: Cell-cycle dysregulation (flow cytometry); assay type: cell-based; settings: dose-dependent
Procedure: as §4

[10] = test system: isogenic BA/F3 cells with FLT3 mutations; assay: Cell-cycle dysregulation (flow cytometry); assay type: cell-based; settings: dose-dependent
Procedure: as §4

Mino = assay: Apoptosis in B-cell malignancies (annexin V/PI, cleaved PARP); assay type: cell-based, human; settings: increasing concentrations
Procedure: Mechanistic studies were undertaken to determine the mechanism of action for Compound 7. The apoptotic state of treated cells was determined by staining with annexin V and propidium iodide (PI), then analysis with the BD Accuri C6 flow cytometer, whereby live cells are annexin V/PI negative, early apoptotic cells are annexin V positive and late apoptotic cells are annexin V and PI positive. In addition production of cleaved PARP, a classic apoptotic marker, was assayed by western blotting with specific antibodies.

MV4-11 = assay: Cytotoxicity in high serum conditions (MTS); assay type: cell-based, human; settings: MV4-11, 72 hours, 10% vs 30%, 50%, 80% FBS
Procedure: Compound 7 was tested in a dose-dependent manner at different serum concentrations. […] In this experiment, MV4-11 (n=6) and EOL-1(n=3˜6) cells were treated with or without Compound 7 for 72 hours in medium containing normal (10%) or high serum (30%, 50%, 80%) FBS with an MTS assay serving as an end point.

[11] = test system: BCR signaling in Ramos cells; assay: BCR signaling in IgM-stimulated Ramos cells; assay type: cell-based; settings: 1 or 6 hours, then 12 μg/mL IgM for 3 min
Procedure: In this experiment, Ramos cells were treated with or without Compound 7 or Ibrutinin at the indicated concentration for 1 (6 replicates) or 6 (3 replicates) hours, then stimulated with 12 μg/mL IgM for 3 min.

FLT3(ITD) = FLT3(ITD) (Homo sapiens, UniProt P36888); assay: Inhibition of FLT3 mutants, kinase IC50; assay type: biochemical; set-up: IC50; other: FLT3(ITD)
Procedure: as §1, §2, §3

## Cc1cnc(-c2ccc(-c3ccc(NC(=O)Nc4c(F)cc(F)cc4F)cc3F)c3c2C(=O)NC3)[nH]1 [Compound 7, 1-{3-fluoro-4-[7-(5-methyl-1H-imidazol-2-yl)-1-oxo-2,3-dihydro-1H-isoindol-4-yl]-phenyl}-3-(2,4,6-trifluorophenyl)urea]
FLT3(D835Y) [1]
  Kd: 4.2 nM
FLT3(K663Q)
  Kd: 0.55 nM
FLT3(D835Y) [2]
  IC50: 166 nM
ITK
  IC50: 4.3 nM
[3]
  IC50: 11.3 nM
[4]
  IC50: 8.8 nM
Ba/F3-FLT3 (FLT3-WT)
  IC50: 9.49 nM
Ba/F3-D835Y (FLT3-D835Y)
  IC50: 8.26 nM
[5]
  IC50: 0.73 nM
[6]
  IC50: 6.74 nM
[7]
  IC50: 0.82 nM
[8]
  IC50: 0.92 nM
[9]
  Tumor volume: reduces tumor volume with increased dose
MOLM-13 cells
  G0/G1 cell-cycle arrest: induce G0/G1 cell-cycle arrest
KG-1 cells
  Cell-cycle dysregulation: induce cell-cycle dysregulation
NOMO-1 cells
  Cell-cycle dysregulation: induce cell-cycle dysregulation
[10]
  Cell-cycle dysregulation: induce cell-cycle dysregulation
Mino
  Apoptosis induction versus ibrutinib: induced apoptosis more effectively than ibrutinib at all concentrations tested
MV4-11
  Activity at high serum concentration: retains high activity at high serum concentration
[11]
  BCR signaling: affects the BCR signaling
FLT3(ITD)
  IC50: 0.817 nM
